# Laboratory results: paper doi:10.1101/2025.11.04.686469, “Discovery of Host-Directed Small Molecules with Broad Anti-Leishmanial Efficacy” (bioRxiv, 2025)
# Legend:
# [1] = tested on: intracellular L. donovani amastigotes; experiment: Luminescent-based evaluation of intracellular anti-leishmanial activity in THP-1 macrophages; type: cell-based, Leishmania donovani; conditions: intracellular Leishmania donovani in THP1 macrophages, luminescence assay (Supplemental Table 2); read-out: Lum IC50
# Outline: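 PMA-differentiated THP-1 macrophages (150 nM, 72 h) were infected 18 h with firefly luciferase-expressing L. donovani LV82 promastigotes, then washed. Infected cells were treated with compounds at 0.1-10 μM for 72 h. Surviving intracellular amastigotes were quantified by firefly luciferase luminescence after cell lysis and 10 min substrate incubation at room temperature.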
# THP-1 macrophages = experiment: Effect of compounds on host cell viability (MTT); type: cell-based; conditions: read-out: 24h LC50; THP1 macrophages, 24-hour incubation, MTT assay (Supplemental Table 2)
# Outline: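 THP-1 cells were differentiated with 150 nM PMA for 72 h, then exposed to compounds at 1–50 μM for 24 h; selected compounds were also run at 1–300 μM for 72 h. MTT at 0.5 mg/mL was added for 2 h at 37 °C, and formazan absorbance was read at 560 nm minus 670 nm.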
SMILES,IC50 [1] [µM],CC50 (THP-1 macrophages) [µM]
O=[N+]([O-])c1cccc(-n2nc(C(F)(F)F)cc2-c2ccc(-c3ccc(C(F)(F)F)cc3)cc2)c1 [Compound 189],> 10,> 50
NCCCCN1CCC(Oc2ccc(-n3nc(C(F)(F)F)cc3C3CCCCC3)cc2)CC1 [Compound 424],2.4,6.5
O=[N+]([O-])c1ccc(-n2cc(C(F)(F)F)nc2-c2ccc(Br)cc2)cc1 [Compound 192],> 10,> 50
NC1CCN(c2ccc(-n3nncc3-c3ccc(C(F)(F)F)cc3)cc2)C1 (stereo not drawn) [Compound 204],> 10,37.2
FC(F)(F)c1cc(-c2ccc(-c3ccc(S(F)(F)(F)(F)F)cc3)cc2)n(-c2ccc(N3CCC(NCc4ccccc4)C3)cc2)n1 (stereo not drawn) [Compound 107],> 10,> 50
NC1CCN(c2ccc(-n3ccnc3-c3ccc(-c4ccccc4)cc3)cc2)C1 (stereo not drawn) [Compound 83],1.8,6.2
NC1CCN(c2ccc(-n3nc(C(F)F)cc3-c3ccc(-c4ccc(C(F)(F)F)cc4)cc3)cc2)C1 (stereo not drawn) [Compound 281],2,14.3
FC(F)(F)Oc1ccc(-n2cc(C(F)(F)F)nc2-c2ccc(-c3ccccc3)cc2)cc1 [Compound 183],> 10,> 50
NC1CCN(c2ccc(-n3nc(C4CCCCC4)cc3C(F)(F)F)cc2)C1 (stereo not drawn) [Compound 232],2.6,14.4
Cc1nn(-c2ccc(Br)cc2)c2ccccc12 [Compound 132],> 10,> 50
Nc1ccc(-n2cc(C(F)(F)F)nc2-c2ccc(Br)cc2)cc1 [Compound 193],> 10,> 50
FC(F)(F)c1ccc(-c2ccc(-c3cc(C(F)(F)F)nn3-c3ccc(NC4CCNCC4)cc3)cc2)cc1 [Compound 65],2.3,4
N#Cc1ccc(-n2cc(C(F)(F)F)nc2-c2ccc(-c3ccc(C(F)(F)F)cc3)cc2)cc1 [Compound 177],> 10,> 50
O=[N+]([O-])c1ccc(-n2nc(C(F)(F)F)cc2-c2ccc(-c3ccc(S(F)(F)(F)(F)F)cc3)cc2)cc1 [Compound 103],> 10,> 50
COc1ccc(-c2cc(C(F)(F)F)nn2-c2ccc(NC3CCNC3)cc2)cc1OC (stereo not drawn) [Compound 260],4.3,13.9
FC(F)(F)c1cc(C2CCCCC2)n(-c2ccc(NC3CNC3)cc2)n1 [Compound 394],5.5,30.9
CC(C)(C)OC(=O)NCC(=O)Nc1ccc(-n2cnc3ccccc32)cc1 [Compound 148],> 10,> 50
O=C(O)c1ccc(-n2cc(C(F)(F)F)nc2-c2ccc(-c3ccc(C(F)(F)F)cc3)cc2)c(F)c1 [Compound 176],> 10,> 50
FC(F)(F)c1ccc(-c2ccc(-c3cc(C(F)(F)F)nn3-c3ccc(N4CCC(NCc5ccccc5)CC4)cc3)cc2)cc1 [Compound 89],4,8
FC(F)(F)c1cc(-c2ccc(Cl)c(Cl)c2)n(-c2ccc(Br)cc2)n1 [Compound 198],> 10,> 50
FC(F)(F)c1ccc(-c2ccc(-c3cc(C(F)(F)F)nn3-c3ccc(NC4CCN(C5CCCCC5)C4)cc3)cc2)cc1 (stereo not drawn) [Compound 58],2.2,2.6
CS(=O)(=O)c1ccc(-n2nc(C(F)(F)F)cc2-c2ccc(-c3ccccc3)cc2)cc1 [Compound 174],> 10,> 50
FC(F)(F)c1ccc(-c2ccc(-c3cc(C(F)(F)F)nn3-c3ccc(N4CCNCC4)cc3)cc2)cc1 [Compound 208],5.7,31
Fc1cccc(CN2CCC(Nc3ccc(-n4nc(C(F)(F)F)cc4C4CCCCC4)cc3)C2)c1 (stereo not drawn) [Compound 357],1.2,13.1
O=C1CN(c2ccc(-n3cc(C(F)(F)F)nc3-c3ccc(C(F)(F)F)cc3)cc2)CCN1 [Compound 332],8,31.2
Nc1ccc(-c2cc(C(F)(F)F)nn2-c2ccc(-c3ccc(C(F)(F)F)cc3)cc2)cc1 [Compound 152],> 10,43.6
CC(C)C#Cc1ccc(-c2cc(C(F)(F)F)nn2-c2ccc(Br)cc2)cc1 [Compound 96],> 10,37.5
CN(C)c1ccc(-c2cc(C(F)(F)F)nn2-c2ccc(N3CCC(NC(=O)OC(C)(C)C)C3)cc2)cc1 (stereo not drawn) [Compound 217],> 10,> 50
CC(C)(C)c1cc(C(F)(F)F)nn1-c1ccc(N2CCC(N)C2)cc1 (stereo not drawn) [Compound 203],2.9,11.8
NCC(=O)Nc1ccc(-n2cc(C(F)(F)F)nc2-c2ccc(Br)cc2)cc1 [Compound 195],> 10,38.6
